Results as given in patent US20230405071A1, “COMPOSITIONS AND METHODS USEFUL FOR MANAGEMENT OF BLOOD SUGAR” (SOLVEAT FUNCTIONAL NUTRITION SOLUTIONS LTD., priority 2020, published 2023).

Tests used:
[1] = human, in vivo
Description: Patient 1: a person, suffering from diabetic leg complications and a non-healing wound on the minimus, indicated for amputation. The patient was treated with the composition as in the example 5, TI.1-8HC, 3 grams per day, for 20 days. The treatment was supported with suitable acupuncture protocol, and topical antibiotic preparations.
Patient 2: a person, suffering from diabetes, a completer of the clinical trial similar to the described in the Example 3, proceeded with the open-label extension for further 3 months and achieved a 24% reduction in the fasting glucose levels. Thereafter the dose was increased to 1500 mg twice daily, and after one month a complete control over fasting glucose level has been achieved (below 140 mg/dL). Low-carbohydrate diets was prescribed to maintain the achievement. The patient presented a year after with fasting blood glucose of over 160; requested and was prescribed raw fan shi liu ye 10000 mg per day (as decoction—10 minutes boiling, chilling, and consumption). After 10 days the fasting blood glucose declined to between 120 and 130 mg/dL, but the patient suffered from fatigue and reverted to the experimental chocolate.
Patient 3: a person, presented during COVID-19 pandemics with fasting blood glucose of 150 mg/dL, HA1C of 7.4, with anxiety and uncontrolled eating. […]

L6 myotubes = assay: Glucose uptake colorimetric assay (2-deoxy glucose) in differentiated L6 cells; type: cell-based; conditions: insulin challenge versus serum-free control (FIG. 2)
Description: The objective of the study was to evaluate the anti-diabetic action of herbal blends. The ability to enhance glucose consumption by skeletal muscle was evaluated in L6 myotubes model in comparison to various control groups, including two known traditional reference formulae.
Cell culturing, materials preparations and all treatments were performed under sterile conditions. The L6 Cells culture medium comprised A-MEM supplemented with 100 U/ml penicillin and 100 μg/ml streptomycin and 10% FBS, sterilely filtered. The L6 cells differentiation medium comprised α-MEM supplemented with 100 U/ml penicillin and 100 μg/ml streptomycin and 2% FBS, sterilely filtered. […]
Glucose uptake assay was performed using Glucose Uptake Colorimetric Assay Kit in the non-radioactive 2-deoxy glucose derivative, according to the manufacturers' instructions in KRBH buffer, on differentiated cells. Colorimetric data was quantified by the use of a standard curve. Glucose uptake in the control (naïve cells), vehicle (DDW), and insulin-treated cells was measured.
Glucose uptake assay was then performed for the two concentrations of tested items: at 50 μg/mL and at 5 μg/mL. […] It can be readily appreciated from the FIG. 3 that the composition of eight ingredients composition was equipotent to QWS and BHT (denoted as “c1” and c2”) at the concentration of 50 μg/mL. […]

| Substance | tolerability of treatment over extended time [1] | glucose uptake by muscle cells (L6 myotubes) |
| --- | --- | --- |
| Psidium guajava L. [fan shi liu ye] | could not be well tolerated |  |
| insulin |  | significantly increased |
